According to US20250230193A1, “CYCLIC COMPOUND HAVING SELECTIVE KRAS INHIBITORY EFFECT ON HRAS AND NRAS” (CHUGAI SEIYAKU KABUSHIKI KAISHA, priority 2022, published 2025):

Legend:
[1] = biological target: GDP-bound HRAS wild-type protein (Homo sapiens, UniProt P01112); test: Binding to HRAS by surface plasmon resonance (SPR), Single Cycle Kinetics; conditions: KD ratio HRAS/KRAS, SPR, GDP-bound wild-type proteins
[2] = biological target: GDP-bound NRAS wild-type protein (Homo sapiens, UniProt P01111); test: Binding to NRAS by surface plasmon resonance (SPR), Single Cycle Kinetics; conditions: KD ratio NRAS/KRAS, SPR, GDP-bound wild-type proteins
Sequence of GDP-bound NRAS wild-type protein (P01111 whole entry): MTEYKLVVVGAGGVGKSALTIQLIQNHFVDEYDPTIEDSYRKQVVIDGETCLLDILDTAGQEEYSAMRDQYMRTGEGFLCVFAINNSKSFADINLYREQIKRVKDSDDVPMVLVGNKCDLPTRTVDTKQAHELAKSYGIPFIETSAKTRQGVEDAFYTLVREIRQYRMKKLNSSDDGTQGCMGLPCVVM

Sequence of GDP-bound HRAS wild-type protein (P01112 whole entry): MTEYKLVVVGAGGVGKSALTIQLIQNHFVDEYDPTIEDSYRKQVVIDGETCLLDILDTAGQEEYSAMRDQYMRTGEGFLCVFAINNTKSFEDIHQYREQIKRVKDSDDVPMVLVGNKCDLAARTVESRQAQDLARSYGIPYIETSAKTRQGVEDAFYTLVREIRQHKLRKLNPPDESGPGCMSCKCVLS

## CCC[C@H]1C(=O)N[C@@H](C2CCCC2)C(=O)N(C)CC(=O)N(C)[C@H]2C/C=C\CCN(C2=O)[C@@H](Cc2ccc(C)cc2)C(=O)N(C)CC(=O)N[C@@H](CCc2cc(F)c(C(F)(F)F)c(F)c2)C(=O)N2CC3(CC3)C[C@H]2C(=O)NC2(CC(C)(C)C2)C(=O)N(C)[C@@H](CC(C)(C)C)C(=O)N(C)[C@H](C(=O)N(C)C)CC(=O)N1C [PP2999]
[1]
  HRAS/KRAS (ratio of KD value with respect to GDP-bound HRAS wild-type protein to KD value with respect to KRAS): A (a compound having 10 or more and less than 20 is denoted as A)
[2]
  NRAS/KRAS (ratio of KD value with respect to GDP-bound NRAS wild-type protein to KD value with respect to KRAS): AA (a compound having 20 or more is denoted as AA)

## CCC[C@H]1C(=O)N[C@@H](C2CCOCC2)C(=O)N(C)CC(=O)N(C)[C@H]2C/C=C\CCN(C2=O)[C@@H](Cc2ccc(C(F)(F)F)cc2)C(=O)N(C)CC(=O)N[C@@H](CCc2ccc(C(F)(F)F)c(Cl)c2)C(=O)N2C[C@H](OCC)C[C@H]2C(=O)NC2(CC(C)(C)C2)C(=O)N(C)[C@@H](C2CCCC2)C(=O)N(C)[C@H](C(=O)N(C)C)CC(=O)N1C [PP3000]
[1]
  HRAS/KRAS (ratio of KD value with respect to GDP-bound HRAS wild-type protein to KD value with respect to KRAS): A (a compound having 10 or more and less than 20 is denoted as A)
[2]
  NRAS/KRAS (ratio of KD value with respect to GDP-bound NRAS wild-type protein to KD value with respect to KRAS): AA (a compound having 20 or more is denoted as AA)

## CCC[C@H]1C(=O)N[C@@H](C2CCOCC2)C(=O)N(C)CC(=O)N(C)[C@H]2C/C=C\CCN(C2=O)[C@@H](Cc2ccc(C)cc2)C(=O)N(C)CC(=O)N[C@@H](CCc2ccc(C(F)(F)F)c(Cl)c2)C(=O)N2C[C@H](OCC)C[C@H]2C(=O)NC2(CC(C)(C)C2)C(=O)N(C)[C@@H](C2CCCC2)C(=O)N(C)[C@H](C(=O)N(C)C)CC(=O)N1C [PP3002]
[1]
  HRAS/KRAS (ratio of KD value with respect to GDP-bound HRAS wild-type protein to KD value with respect to KRAS): A (a compound having 10 or more and less than 20 is denoted as A)
[2]
  NRAS/KRAS (ratio of KD value with respect to GDP-bound NRAS wild-type protein to KD value with respect to KRAS): A (a compound having 10 or more and less than 20 is denoted as A)

## CCC[C@H]1C(=O)N[C@@H]([C@@H](C)CC)C(=O)N(C)CC(=O)N(C)[C@H]2C/C=C\CCN(C2=O)[C@@H](Cc2ccc(C)cc2)C(=O)N(C)CC(=O)N[C@@H](CCc2cc(F)c(C(F)(F)F)c(F)c2)C(=O)N2CC3(CC3)C[C@H]2C(=O)NC2(CC(C)(C)C2)C(=O)N(C)[C@@H](CC(F)(F)F)C(=O)N(C)[C@H](C(=O)N(C)C)CC(=O)N1C [PP3003]
[1]
  HRAS/KRAS (ratio of KD value with respect to GDP-bound HRAS wild-type protein to KD value with respect to KRAS): A (a compound having 10 or more and less than 20 is denoted as A)
[2]
  NRAS/KRAS (ratio of KD value with respect to GDP-bound NRAS wild-type protein to KD value with respect to KRAS): AA (a compound having 20 or more is denoted as AA)

## CCC[C@H]1C(=O)N[C@@H](C2CCCC2)C(=O)N(C)CC(=O)N(C)[C@H]2C/C=C\CCN(C2=O)[C@@H](Cc2ccc(C)cc2)C(=O)N(C)CC(=O)N[C@@H](CCc2ccc(C(F)(F)F)c(OC)c2)C(=O)N2C[C@H](OCC)C[C@H]2C(=O)NC2(CC(C)(C)C2)C(=O)N(C)[C@@H](CC(C)(C)C)C(=O)N(C)[C@H](C(=O)N(C)C)CC(=O)N1C [PP3005]
[1]
  HRAS/KRAS (ratio of KD value with respect to GDP-bound HRAS wild-type protein to KD value with respect to KRAS): B (a compound having 3 or more and less than 10 is denoted as B)
[2]
  NRAS/KRAS (ratio of KD value with respect to GDP-bound NRAS wild-type protein to KD value with respect to KRAS): A (a compound having 10 or more and less than 20 is denoted as A)

## CCC[C@H]1C(=O)N[C@@H]([C@@H](C)CC)C(=O)N(C)CC(=O)N(C)[C@H]2C/C=C\CCN(C2=O)[C@@H](Cc2ccc(C)cc2)C(=O)N(C)CC(=O)N[C@@H](CCc2ccc(C(F)(F)F)c(OC)c2)C(=O)N2C[C@H](OCC)C[C@H]2C(=O)NC2(CC(C)(C)C2)C(=O)N(C)[C@@H]([C@@H](C)CC)C(=O)N(C)[C@H](C(=O)N(C)C)CC(=O)N1C [PP3006]
[1]
  HRAS/KRAS (ratio of KD value with respect to GDP-bound HRAS wild-type protein to KD value with respect to KRAS): A (a compound having 10 or more and less than 20 is denoted as A)
[2]
  NRAS/KRAS (ratio of KD value with respect to GDP-bound NRAS wild-type protein to KD value with respect to KRAS): A (a compound having 10 or more and less than 20 is denoted as A)
